Laboratory results reported in patent publication US8541576B2, “Substituted pyrazolo-quinazoline derivatives as kinase inhibitors” (Nerviano Medical Sciences SRL, priority 2010, dated 2013).

Assays:
[1] = target: T1, Full-length human PIM-1 (Homo sapiens, UniProt P11309); experiment: Biochemical assay for inhibitors of PIM-1 kinase activity (trans-phosphorylation, Dowex resin, 33P-ATP); settings: ATP 200 μM, enzyme 1 nM, Aktide 25 μM
T1 construct: Full-length human PIM-1 was expressed and purified; made in house
Protocol: Biochemical assay for inhibitors of PIM-1 kinase activity
The inhibitory activity of putative kinase inhibitors and the potency of selected compounds were determined using a trans-phosphorylation assay.
Specific peptide or protein substrates are trans-phosphorylated by their specific ser-thr or tyr kinase in the presence of ATP traced with ^33P-γ-ATP, and in the presence of their own optimal buffer and cofactors.
At the end of the phosphorylation reaction, more than 98% unlabeled ATP and radioactive ATP is captured by an excess of the ion exchange Dowex® resin; the resin then settles down to the bottom of the reaction plate by gravity.
Supernatant is subsequently withdrawn and transferred into a counting plate, then evaluated by β-counting.
The buffer for PIM-1 assay was composed of HEPES 50 mM, at pH 7.5, with 10 mM MgCl2, 1 mM DTT, 3 μM NaVO3, and 0.2 mg/ml BSA
Full-length human PIM-1 was expressed and purified as described in Bullock A N, et al., J. Biol. Chem. 2005, 280, 41675-82.
1.7 μM PIM1 was incubated 1 hour RT at 28° C. in the presence of 125 μM ATP
ATP concentration: 200 μM
Enzyme concentration: 1 nM
Substrate concentration Aktide (Chemical Abstract Service Registry Number 324029-01-8): 25 μM
The test mix consisted of:
1) 3× Enzyme mix (done in Kinase Buffer 3×), 5 μL/well
2) 3× substrate and ATP mix (done in ddH2O), together with ^33P-γ-ATP, 5 μL/well
3) 3× test compounds (diluted into ddH2O—3% DMSO)-5 μL/well
For IC50 determination, test compounds are received as a 1 mM solution in 100% DMSO and distributed into 96-well plates: compounds are then plated into the first column of a new 96-well plate (A1 to G1), 100 μl/well.
An automated station (Biomek FX®, Beckman) is used for serial dilutions, producing 1:3 dilutions in 100% DMSO, from line A1 to A10, for all the compounds in the column. Moreover, 4-5 copies of daughter plates are prepared by reformatting 5 μL of this first set of 100% DMSO dilution plates into 384-deep well plates: one copy of these serial dilution plates with the test compounds is thawed on the day of study, reconstituted at the working concentration (3-fold the final concentration) with 162 μL/well of water and used for IC50 determination assays. In a standard experiment, the highest concentration (3×) of compounds is typically 30 μM, while the lowest one is typically 1.5 nM.
Each 384-well plate generates at least one curve of the standard inhibitor staurosporine and reference wells (total enzyme activity vs. no enzymatic activity) for evaluation of Z′ and signal to background (S/B) ratio.
384-well plates, V bottom (test plates) are prepared with 5 μl of compound diluted as previously described (3×) and then placed onto a PlateTrak® 12 robotized station (Perkin Elmer; the robot has one 384-tip pipetting head for assay start, plus one 96-tip head for dispensing resin) together with one reservoir for Enzyme mix (3×) and one for ATP mix (3×).
Data are analyzed by an internally customized version of the “Assay Explorer®” SW package, which provides sigmoidal fitting of the ten-dilution curves for IC50 determination in secondary assay/hit confirmation routines.

[2] = target: T2, Full-length human PIM-2 (Homo sapiens, UniProt Q9P1W9); experiment: PIM-2 kinase inhibition assay: Dowex technique; assay type: biochemical; settings: ATP 4 μM, enzyme 1.5 nM, Aktide 5 μM
T2 construct: Full-length human PIM-2 was expressed and purified; made in house
Protocol: Method for PIM-2 Kinase Inhibition Assay: Dowex Technique
The buffer for PIM-2 assay was composed of HEPES 50 mM, at pH 7.5, with 1 mM MgCl2, 1 mM DTT, 3 μM Na3VO4, and 0.2 mg/ml BSA
Full-length human PIM-2 was expressed and purified as described in Fedorov O, et al. (2007) PNAS 104, 51, 20523-28.
Assay Conditions (Final Concentrations):
Enzyme concentration=1.5 nM
Aktide substrate (Chemical Abstract Service Registry Number 324029-01-8)=5 μM
See above: same procedure as described for PIM-1.

[3] = tested on: MV-4-11 (biphenotypic B myelomonocytic leukemia) cells; experiment: In vitro cell proliferation assay (CellTiter-Glo); assay type: cell-based; settings: Homo sapiens, MV4-11, antiproliferative activity, 72 hours
Protocol: In Vitro Cell Proliferation Assay:
MV-4-11 (biphenotypic B myelomonocytic leukemia) cells (1250 cells/well) were seeded in white 384 well-plates in complete medium (RPMI 1640 or EMEM plus 10% Fetal bovine serum) and treated with compounds dissolved in 0.1% DMSO, 24 h after seeding. The cells were incubated at 37° C. and 5% CO2 and after 72 hours the plates were processed using CellTiter-Glo® assay (Promega) following the manufacturer's instruction. CellTiter-Glo® is a homogenous method based on the quantification of the ATP present, an indicator of metabolically active cells. ATP is quantified using a system based on luciferase and D-luciferin resulting into light generation. The luminescent signal is proportional to the number of cells present in culture.
Briefly 25 μl/well reagent solution was added to each wells and after 5 minutes shacking microplates were red by Envision® (PerkinElmer) luminometer. The luminescent signal was proportional to the number of cells present in culture.
Inhibitory activity was evaluated comparing treated versus control data using Assay Explorer (MDL) program. IC50 was calculated using sigmoidal interpolation curve.

[4] = tested on: BaF3 parental line; experiment: In vitro cell proliferation potency assay, BaF3 parental line with IL-3 (Cell Titer Glo); assay type: cell-based, murine; settings: Mus musculus; BaF3 parental cells with mIL-3, incubated overnight; read-out: Prolif BaF3 IL3 (EC50)
Excerpt: (§1) BaF3 is a murine interleukin-3 dependent pro-B cell line, useful as a model system for assessing both the potency and downstream signaling of kinase oncogenes (“Ba/F3 cells and their use in kinase drug discovery”, Warmuth, M, et al, (January 2007) Current Opinion in Oncology, Vol 19(1):55-60). BaF3 parental line was obtained from the DSMZ repository. BaF3 lines transfected with PIM1 or PIM2 were generated. Mouse IL-3 was purchased from R&D Systems. G418 was purchased from Clontech. Media for BaF3 parental line contained RPMI, 10% FBS, 2 mM L-Glutamine, 2 ng/mL mIL-3. Media for BaF3 PIM1 & 2 lines contained RPMI, 10% FBS, 2 mM L-Glutamine, […]. Media for MM1.S (multiple myeloma cells) line contained RPMI, 10% FBS, 2 mM L-Glutamine.
(§2) Parental cells, BaF3 PIM1 cells, BaF3 PIM2 cells, and MM1.S (multiple myeloma) cells were seeded at 2 k/well, 5 k/well, 5 k/well, and 10 k/well respectively, in a 384-well plate, at 45 μL/well. Test compound was added at 5 μL/well. BaF3 cells (parental and transfected) were incubated overnight, while MM1.S cells were incubated for 72 hours at 37° C., 5% CO2. CELL TITER GLO® Reagent (Promega) was added at 50 μL/well, the plates were incubated for 30 minutes, and their luminescence read on an HT Analyst. IC50/EC50 values for the test compound were calculated.

[5] = tested on: BaF3 PIM1 cells; experiment: In vitro cell proliferation potency assay, BaF3 transfected with PIM1 (Cell Titer Glo); assay type: cell-based, murine; settings: Mus musculus, incubated overnight, read-out: Prolif BaF3 PIM1 (EC50)
Excerpt: as §1, §2

[6] = tested on: phosphorylation of BAD at Ser112 by PIM kinases; experiment: Western blot of phospho-BAD (Ser112) in MV-4-11 cells; assay type: cell-based, human; settings: different concentrations, 3 hours, compared to DMSO treated cells, FIG. 2
Protocol: To further establish that the cytotoxicity of the compounds of the present invention resulted from the inhibition of PIM kinases, we examined the phosphorylation of the pro-apoptotic protein BAD by PIM kinases in the presence or absence of PIM inhibitors in MV-4-11 leukemia cell lines.
MV-4-11 cells were plated in 6 well plates at 1.5×10^6 cells/ml and treated with different concentrations of PIM-inhibitors for 3 hours. Cells were harvested, washed with PBS buffer and lysed with lysis buffer (2% SDS, 100 mM Tris ph 7.5, 1:100 Phosphatase Inhibitor Cocktail 1 (SIGMA) and 1:100 Phosphatase Inhibitor Cocktail 2(SIGMA) and Complete Protease Inhibitor (Roche). The protein concentration in the lysates was quantified using the BCA Protein Assay Kit (Pierce). Equal amounts of protein were loaded onto 4-12% gradient Tri-glycine gel for SDS-PAGE analysis. Then the proteins were transferred to PVDF membranes (Millipore) for Western Blotting. Membranes were probed with the antibody for phospho-Bad (Ser112) (Cell Signaling Technologies).

T2 sequence (Q9P1W9 whole entry): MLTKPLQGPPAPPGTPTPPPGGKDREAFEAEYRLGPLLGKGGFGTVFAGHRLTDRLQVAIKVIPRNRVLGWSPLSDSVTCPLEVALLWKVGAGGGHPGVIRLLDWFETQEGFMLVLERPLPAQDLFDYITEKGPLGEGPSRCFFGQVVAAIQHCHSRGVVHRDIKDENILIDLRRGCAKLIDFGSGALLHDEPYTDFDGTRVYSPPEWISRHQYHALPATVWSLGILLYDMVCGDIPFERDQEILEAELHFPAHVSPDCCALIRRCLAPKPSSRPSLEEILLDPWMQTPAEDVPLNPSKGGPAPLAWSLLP
T1 sequence (P11309 whole entry): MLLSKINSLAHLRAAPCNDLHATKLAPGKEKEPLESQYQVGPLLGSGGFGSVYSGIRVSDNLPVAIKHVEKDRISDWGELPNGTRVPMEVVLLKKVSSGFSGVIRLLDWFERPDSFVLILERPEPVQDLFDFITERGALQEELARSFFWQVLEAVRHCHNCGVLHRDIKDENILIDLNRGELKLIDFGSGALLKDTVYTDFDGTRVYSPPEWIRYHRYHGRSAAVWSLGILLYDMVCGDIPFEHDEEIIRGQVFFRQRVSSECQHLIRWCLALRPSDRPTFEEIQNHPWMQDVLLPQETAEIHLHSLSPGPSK

SMILES: CSc1ncc2ccc3c(C(N)=O)nn(C(C)(C)C)c3c2n1 [Compound 85, 1-tert-butyl-8-(methylsulfanyl)-1H-pyrazolo[4,3-h]quinazoline-3-carboxamide]
- IC50 [1]: 1 nM
- IC50 [2]: 2 nM
- IC50 [3]: 103 nM
- EC50 [4]: 13000 nM
- EC50 [5]: 310 nM
- levels of pBAD (s112) by western blot [6]: dose dependent reduction

SMILES: CSc1ncc2ccc3c(C(N)=O)nn(C4CCC(N)CC4)c3c2n1 (centres unmarked) [Compound 93, 1-(4-aminocyclohexyl)-8-(methylsulfanyl)-1H-pyrazolo[4,3-h]quinazoline-3-carboxamide]
- IC50 [1]: 1 nM
- IC50 [2]: 1 nM
- IC50 [3]: 448 nM
- EC50 [4]: 7900 nM
- EC50 [5]: 44 nM

SMILES: CN1CCN(c2ccc(Oc3ncc4ccc5c(C(N)=O)nn(C(C)(C)C)c5c4n3)cc2)CC1 [Compound 51, 1-tert-butyl-8-[4-(4-methylpiperazin-1-yl)phenoxy]-1H-pyrazolo[4,3-h]quinazoline-3-carboxamide]
- IC50 [1]: 4 nM
- IC50 [2]: 15 nM
- IC50 [3]: 192 nM
- EC50 [4]: 9300 nM
- EC50 [5]: 210 nM

SMILES: CSc1ncc2ccc3c(C(N)=O)nn(C4CCNCC4)c3c2n1 [Compound 91, 8-(methylsulfanyl)-1-(piperidin-4-yl)-1H-pyrazolo[4,3-h]quinazoline-3-carboxamide]
- IC50 [1]: 19 nM
- IC50 [2]: 46 nM
- IC50 [3]: 1440 nM

SMILES: CSc1ncc2ccc3c(C(N)=O)nn(CCO)c3c2n1 [Compound 1, 1-(2-hydroxyethyl)-8-(methylsulfanyl)-1H-pyrazolo[4,3-h]quinazoline-3-carboxamide]
- IC50 [1]: 50 nM
- IC50 [2]: 221 nM
- IC50 [3]: 992 nM

SMILES: COc1ncc2ccc3c(C(N)=O)nn(C4CCNCC4)c3c2n1 [Compound 97, 8-methoxy-1-(piperidin-4-yl)-1H-pyrazolo[4,3-h]quinazoline-3-carboxamide]
- IC50 [1]: 154 nM
- IC50 [2]: 271 nM
- IC50 [3]: 294 nM

SMILES: CSc1ncc2ccc3c(C(N)=O)nn([C@H]4C[C@H](CO)C4)c3c2n1 [Compound 105, 1-[trans-3-(hydroxymethyl)cyclobutyl]-8-(methylsulfanyl)-1H-pyrazolo[4,3-h]quinazoline-3-carboxamide]
- IC50 [1]: 3 nM
- IC50 [2]: 14 nM
- IC50 [3]: 16.8 nM

SMILES: Cn1nc(C(N)=O)c2ccc3cnc(Oc4ccc(N5CCNCC5)cc4)nc3c21 [Compound 27, 1-methyl-8-[4-(piperazin-1-yl)phenoxy]-1H-pyrazolo[4,3-h]quinazoline-3-carboxamide]
- IC50 [1]: 4 nM
- IC50 [2]: 498 nM
- IC50 [3]: 308 nM

SMILES: CC(=O)c1cc(N2CCNCC2)ccc1Oc1ncc2ccc3c(C(N)=O)nn(C)c3c2n1 [Compound 38, 8-[2-acetyl-4-(piperazin-1-yl)phenoxy]-1-methyl-1H-pyrazolo[4,3-h]quinazoline-3-carboxamide]
- IC50 [1]: 20 nM
- IC50 [2]: 527 nM
- IC50 [3]: 308 nM

SMILES: NC(=O)c1nn(C2CCC(N)CC2)c2c1ccc1cnc(-c3ccsc3)nc12 (centres unmarked) [Compound 112, 1-(4-aminocyclohexyl)-8-(thiophen-3-yl)-1H-pyrazolo[4,3-h]quinazoline-3-carboxamide]
- IC50 [1]: 300 nM
- IC50 [2]: 43 nM
- EC50 [4]: 2000 nM
- EC50 [5]: 1300 nM
